Source: PubChem BioAssay AID1745844 (Carcinogenic Potency Database (CPDB), 2022)
Calls of active or inactive are those of the source. No rule for the calls is given here.

Tested on: rodent lifetime carcinogenesis bioassay, tumor incidence TD50
Assay: carcinogenic potency in animals, long-term in vivo studies, CPDB compilation (AID 1745844)

NC(N)=Nc1nc(CSCCNc2nsnc2N)cs1
TD50 (rat, strain Charles River CD (Sprague-Dawley), females, by gavage, site: gastric mucosa, lesion: carcinoid tumor, malignant, dosed 105 weeks, study length 105 weeks): 6270 mg/kg/day
TD50 (rat, strain Charles River CD (Sprague-Dawley), males, by gavage, site: gastric mucosa, lesion: carcinoid tumor, malignant, dosed 105 weeks, study length 105 weeks): 4140 mg/kg/day

CCCCCN(N=O)C(N)=O
TD50 (rat, strain Donryu, females, in drinking water, site: all sites, lesion: myelocytic leukemia, dosed 65 weeks, study length 65 weeks): 19.9 mg/kg/day
TD50 (rat, strain Donryu, females, in drinking water, site: any site (literature study), lesion: several types, types named in the paper, dosed 65 weeks, study length 65 weeks): 1.93 mg/kg/day
TD50 (rat, strain Donryu, females, in drinking water, site: digestive tract, lesion: several types, types named in the paper, dosed 65 weeks, study length 65 weeks): 1.15 mg/kg/day
TD50 (rat, strain Donryu, females, in drinking water, site: esophagus, lesion: one or several types, types not named, dosed 65 weeks, study length 65 weeks): 0.967 mg/kg/day
TD50 (rat, strain Donryu, females, in drinking water, site: forestomach, lesion: one or several types, types not named, dosed 65 weeks, study length 65 weeks): 1.35 mg/kg/day
TD50 (rat, strain Donryu, females, in drinking water, site: liver, lesion: hepatocellular adenoma, dosed 65 weeks, study length 65 weeks): 13.3 mg/kg/day
TD50 (rat, strain Donryu, females, in drinking water, site: mammary gland, lesion: several types, types named in the paper, dosed 65 weeks, study length 65 weeks): 11.9 mg/kg/day
TD50 (rat, strain Donryu, males, in drinking water, site: all sites, lesion: myelocytic leukemia, dosed 65 weeks, study length 65 weeks): 9.17 mg/kg/day
TD50 (rat, strain Donryu, males, in drinking water, site: any site (literature study), lesion: several types, types named in the paper, dosed 65 weeks, study length 65 weeks): 0.541 mg/kg/day
TD50 (rat, strain Donryu, males, in drinking water, site: digestive tract, lesion: several types, types named in the paper, dosed 65 weeks, study length 65 weeks): 0.532 mg/kg/day
TD50 (rat, strain Donryu, males, in drinking water, site: esophagus, lesion: one or several types, types not named, dosed 65 weeks, study length 65 weeks): 1.44 mg/kg/day
TD50 (rat, strain Donryu, males, in drinking water, site: forestomach, lesion: one or several types, types not named, dosed 65 weeks, study length 65 weeks): 0.532 mg/kg/day
TD50 (rat, strain Fischer 344, females, by gavage, site: forestomach, lesion: one or several types, types not named, dosed 50 weeks, study length 104 weeks): 0.478 mg/kg/day
TD50 (rat, strain Fischer 344, females, by gavage, site: liver, lesion: one or several types, types not named, dosed 50 weeks, study length 104 weeks): 4.7 mg/kg/day
TD50 (rat, strain Fischer 344, females, by gavage, site: lung, lesion: several types, types named in the paper, dosed 50 weeks, study length 104 weeks): 1.09 mg/kg/day
TD50 (rat, strain Fischer 344, females, by gavage, site: mammary gland, lesion: adenocarcinoma, dosed 50 weeks, study length 104 weeks): 2.98 mg/kg/day
TD50 (rat, strain Fischer 344, females, by gavage, site: uterus, lesion: several types, types named in the paper, dosed 50 weeks, study length 104 weeks): 0.934 mg/kg/day
TD50 (rat, strain Fischer 344, males, by gavage, site: all sites, lesion: mesothelioma, dosed 50 weeks, study length 104 weeks): 0.865 mg/kg/day
carcinogen call (rat, strain Fischer 344, males, by gavage, site: forestomach, lesion: one or several types, types not named, dosed 50 weeks, study length 104 weeks): positive
TD50 (rat, strain Fischer 344, males, by gavage, site: lung, lesion: several types, types named in the paper, dosed 50 weeks, study length 104 weeks): 0.546 mg/kg/day

CC(C)=NO
TD50 (rat, strain MRC-Wistar, females, in drinking water, site: any site (literature study), lesion: several types, types named in the paper, dosed 78 weeks, study length 130 weeks): 91.5 mg/kg/day
TD50 (rat, strain MRC-Wistar, females, in drinking water, site: liver, lesion: hemangioma, dosed 78 weeks, study length 130 weeks): 408 mg/kg/day (inactive)
TD50 (rat, strain MRC-Wistar, females, in drinking water, site: liver, lesion: hepatocellular adenoma, dosed 78 weeks, study length 130 weeks): 127 mg/kg/day (inactive)
TD50 (rat, strain MRC-Wistar, females, in drinking water, site: liver, lesion: several types, types named in the paper, dosed 78 weeks, study length 130 weeks): 127 mg/kg/day (inactive)
TD50 (rat, strain MRC-Wistar, males, in drinking water, site: any site (literature study), lesion: several types, types named in the paper, dosed 78 weeks, study length 110 weeks): 12.8 mg/kg/day
TD50 (rat, strain MRC-Wistar, males, in drinking water, site: liver, lesion: hemangioma, dosed 78 weeks, study length 110 weeks): 136 mg/kg/day
TD50 (rat, strain MRC-Wistar, males, in drinking water, site: liver, lesion: hepatocellular adenoma, dosed 78 weeks, study length 110 weeks): 12.1 mg/kg/day
TD50 (rat, strain MRC-Wistar, males, in drinking water, site: liver, lesion: several types, types named in the paper, dosed 78 weeks, study length 110 weeks): 12.1 mg/kg/day (inactive)

O=S(=O)(Oc1ccc(Cl)cc1Cl)c1ccccc1
TD50 (mouse, strain B6AKF1, females, oral dosing, site: any site (literature study), lesion: several types, types named in the paper, dosed 76 weeks, study length 76 weeks): 867 mg/kg/day (inactive)
carcinogen call (mouse, strain B6AKF1, females, oral dosing, site: liver, lesion: hepatoma, dosed 76 weeks, study length 76 weeks): negative (inactive)
TD50 (mouse, strain B6AKF1, females, oral dosing, site: lung, lesion: several types, types named in the paper, dosed 76 weeks, study length 76 weeks): 1920 mg/kg/day (inactive)
TD50 (mouse, strain B6AKF1, males, oral dosing, site: any site (literature study), lesion: several types, types named in the paper, dosed 76 weeks, study length 76 weeks): 1680 mg/kg/day (inactive)
carcinogen call (mouse, strain B6AKF1, males, oral dosing, site: liver, lesion: hepatoma, dosed 76 weeks, study length 76 weeks): negative (inactive)
TD50 (mouse, strain B6AKF1, males, oral dosing, site: lung, lesion: adenoma, dosed 76 weeks, study length 76 weeks): 866 mg/kg/day (inactive)
TD50 (mouse, strain B6C3F1, females, oral dosing, site: any site (literature study), lesion: several types, types named in the paper, dosed 76 weeks, study length 76 weeks): 929 mg/kg/day (inactive)
carcinogen call (mouse, strain B6C3F1, females, oral dosing, site: liver, lesion: hepatoma, dosed 76 weeks, study length 76 weeks): negative (inactive)
TD50 (mouse, strain B6C3F1, females, oral dosing, site: lung, lesion: adenoma, dosed 76 weeks, study length 76 weeks): 1920 mg/kg/day (inactive)
TD50 (mouse, strain B6C3F1, males, oral dosing, site: any site (literature study), lesion: several types, types named in the paper, dosed 76 weeks, study length 76 weeks): 218 mg/kg/day (inactive)
TD50 (mouse, strain B6C3F1, males, oral dosing, site: liver, lesion: hepatoma, dosed 76 weeks, study length 76 weeks): 266 mg/kg/day (inactive)
TD50 (mouse, strain B6C3F1, males, oral dosing, site: lung, lesion: adenoma, dosed 76 weeks, study length 76 weeks): 924 mg/kg/day (inactive)

C[C@H](CCC(=O)O)[C@H]1CC[C@H]2[C@@H]3CC[C@@H]4C[C@H](O)CC[C@]4(C)[C@H]3CC[C@]12C
TD50 (mouse, strain B6C3F1, females, by gavage, site: any site (literature study), lesion: several types, types named in the paper, dosed 103 weeks, study length 105 weeks): 960 mg/kg/day (inactive)
TD50 (mouse, strain B6C3F1, females, by gavage, site: liver, lesion: hepatocellular adenoma + hepatocellular carcinoma + neoplastic nodule, dosed 103 weeks, study length 105 weeks): 1140 mg/kg/day
TD50 (mouse, strain B6C3F1, females, by gavage, site: lung, lesion: alveolar/bronchiolar adenoma + alveolar/bronchiolar carcinoma, dosed 103 weeks, study length 105 weeks): 1030 mg/kg/day
carcinogen call (mouse, strain B6C3F1, males, by gavage, site: any site (literature study), lesion: several types, types named in the paper, dosed 103 weeks, study length 105 weeks): negative (inactive)
TD50 (mouse, strain B6C3F1, males, by gavage, site: lung, lesion: alveolar/bronchiolar adenoma + alveolar/bronchiolar carcinoma, dosed 103 weeks, study length 105 weeks): 834 mg/kg/day
TD50 (rat, strain Fischer 344, females, by gavage, site: any site (literature study), lesion: several types, types named in the paper, dosed 103 weeks, study length 104 weeks): 686 mg/kg/day (inactive)
TD50 (rat, strain Fischer 344, females, by gavage, site: liver, lesion: hepatocellular adenoma + hepatocellular carcinoma + neoplastic nodule, dosed 103 weeks, study length 104 weeks): 1890 mg/kg/day
TD50 (rat, strain Fischer 344, males, by gavage, site: any site (literature study), lesion: several types, types named in the paper, dosed 103 weeks, study length 104 weeks): 501 mg/kg/day (inactive)
TD50 (rat, strain Fischer 344, males, by gavage, site: liver, lesion: hepatocellular adenoma + hepatocellular carcinoma + neoplastic nodule, dosed 103 weeks, study length 104 weeks): 2250 mg/kg/day
